Assay results taken from ChEMBL document CHEMBL1142426, “Design and synthesis of macrocyclic peptidyl hydroxamates as peptide deformylase inhibitors” (2008).
≈ marks a conversion by molar mass, not a printed value. Calls of active or inactive are those of the source. No cut-off for these calls is given here.

How the values were obtained:
[1] = tested on: Escherichia coli; assay: Antimicrobial activity against Escherichia coli; format: functional
[2] = target: T1, Peptide deformylase (Escherichia coli) (UniProt Q9JN24); assay: Inhibition of cobalt-substituted Escherichia coli PDF
T1 sequence (whole entry): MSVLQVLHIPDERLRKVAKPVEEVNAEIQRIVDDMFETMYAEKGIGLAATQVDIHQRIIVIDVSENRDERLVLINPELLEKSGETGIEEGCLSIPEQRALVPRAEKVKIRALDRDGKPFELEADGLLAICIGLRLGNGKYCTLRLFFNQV

[3] = target: T1, Peptide deformylase (Escherichia coli); assay: Slow-binding inhibition of cobalt-substituted Escherichia coli PDF
[4] = tested on: Bacillus subtilis; assay: Antimicrobial activity against Bacillus subtilis; format: functional

Ki [2]	Ki [3]	MIC [4]	MIC [1]	SMILES	Activity [1]
16000 nM	1400 nM	> 24 µg/mL	–	O=C(C[C@H]1CCCCCCCCCNC(=O)[C@@H]2CCCN2C1=O)NO	inactive
109 nM	0.33 nM	–	–	CC(C)(C)[C@@H]1NC(=O)[C@@H](CN(O)C=O)CCCCCCCCCNC1=O	–
> 20000 nM	–	–	–	CC(C)(C)[C@@H]1NC(=O)[C@@H](CC(=O)NO)NC(=O)CCCCCCCCCNC1=O	–
210 nM	4.4 nM	2 µg/mL (≈ 5.41 µM)	> 24 µg/mL	CC(C)(C)[C@@H]1NC(=O)[C@@H](CC(=O)NO)CCCCCCCCCNC1=O	–
